# Results: the supplement of paper PMC8671470
# Legend:
# Test in all cases: cell viability (% survival relative to DMSO control, bortezomib = 0%); higher = less cytotoxic
# Details in all cases: 72 h
# BV-173 = tested on: BV-173
# How it was run: (§1)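 Percent survival figures are means of duplicate wells. They were obtained by CellTiter-Glo luminescence after 10 AML and 5 CML cell lines spent 72 h at 37 °C with 5% CO2 in 384-well plates with compounds at 1, 10, 100, 1000 or 10000 nM. Vehicle was set to 100% and a 10 µM positive control to 0%.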
# K-562 = tested on: K-562
# How it was run: as §1
# MV4-11 = tested on: MV4-11
# How it was run: as §1
# Mono-Mac-6 = tested on: Mono-Mac-6
# How it was run: as §1
Compound,cell viability (BV-173; 1 nM),cell viability (BV-173; 10 nM),cell viability (BV-173; 100 nM),cell viability (BV-173; 1000 nM),cell viability (BV-173; 10000 nM),cell viability (K-562; 1 nM),cell viability (K-562; 10 nM),cell viability (K-562; 100 nM),cell viability (K-562; 1000 nM),cell viability (K-562; 10000 nM),cell viability (MV4-11; 1 nM),cell viability (MV4-11; 10 nM),cell viability (MV4-11; 100 nM),cell viability (MV4-11; 1000 nM),cell viability (MV4-11; 10000 nM),cell viability (Mono-Mac-6; 1 nM),cell viability (Mono-Mac-6; 10 nM),cell viability (Mono-Mac-6; 100 nM),cell viability (Mono-Mac-6; 1000 nM),cell viability (Mono-Mac-6; 10000 nM)
Clc1ccc2c(c1Cl)CNCC2,95%,95.9%,103%,107%,83.6%,103%,97.7%,95.4%,107%,88.7%,99.7%,114%,96.3%,114%,91.6%,95.3%,103%,104%,106%,77.4%
CC(C(=O)O)C(=O)O [Methylmalonate],92.5%,89.2%,104%,98.3%,96.1%,95.3%,101%,106%,95.2%,107%,94.7%,80.3%,107%,97.1%,102%,96.2%,93%,106%,96.1%,90.3%
CCOC(=O)N1c2ccc(C(F)(F)F)cc2[C@@H](N(Cc2cc(C(F)(F)F)cc(C(F)(F)F)c2)C(=O)OC)C[C@H]1CC [Torcetrapib],82.9%,94%,67%,49.3%,26.9%,103%,109%,121%,98.6%,94.4%,103%,105%,147%,84.6%,53.3%,109%,109%,107%,90.8%,78.2%
O=C(O)CCc1ccc(NCc2cccc(Oc3ccccc3)c2)cc1 [GW9508],92.9%,112%,97.1%,124%,135%,109%,88.8%,100%,94.2%,120%,98.2%,98.7%,103%,103%,106%,101%,104%,108%,110%,104%
CC(Cc1ccc(O)c(O)c1)C(C)Cc1ccc(O)c(O)c1 (stereo not given) [Masoprocol],104%,88.1%,101%,104%,5.25%,87.2%,109%,105%,95.8%,76.7%,108%,91.6%,92.5%,97.2%,9.84%,86.6%,109%,102%,84.2%,22.8%
Nc1ccn([C@@H]2O[C@H](CO)[C@@H](O)[C@@H]2O)c(=O)n1 [Cytarabine],102%,16.4%,0.292%,-1.03%,0.0249%,104%,70%,57.6%,32.4%,24.4%,103%,89.2%,84.2%,34.4%,0.163%,95.1%,86.4%,79.8%,19.1%,3.49%
O=C(COc1ccc(C(=O)c2ccccc2)cc1)NC1CCN(Cc2ccccc2)CC1 [AdipoRon],84%,105%,96.7%,87%,52.9%,90.2%,105%,79.7%,104%,58.3%,86.7%,92%,94.2%,91.9%,48.6%,96.3%,101%,99.9%,98.1%,90.7%
O=C(O)C(S)=Cc1c[nH]c2ccc(F)cc12,97.4%,98.1%,85.1%,97.7%,88%,91%,95.7%,90.1%,116%,85.9%,96.2%,97.6%,81.7%,103%,83.6%,104%,94.7%,93.5%,74.2%,74.1%
COc1cc2c(NC3CCN(C)CC3)nc(N3CCCN(C)CC3)nc2cc1OCCCN(C)C [UNC0224],109%,117%,103%,91.6%,83.3%,95%,106%,102%,102%,88.8%,97.8%,98.7%,95.2%,91.4%,64%,100%,116%,101%,98.5%,81.4%
C[C@]12CC[C@H](O)CC1=CC[C@@H]1[C@@H]2CC[C@]2(C)C(c3cccnc3)=CC[C@@H]12 [Abiraterone],91.8%,96.8%,93.5%,116%,108%,109%,113%,107%,112%,89.4%,96.4%,96.5%,107%,114%,99%,97.7%,101%,85.2%,96.1%,108%
Cc1c(-c2ccccc2)oc2c(C(=O)OCCN3CCCCC3)cccc2c1=O.Cl [Flavoxate],86.9%,100%,95.6%,94.1%,97.9%,91%,90%,89.8%,98.8%,83.2%,87.5%,83.6%,97.9%,94.8%,98.6%,92.6%,105%,101%,96%,94.6%
Clc1ccc(COC(Cn2ccnc2)c2ccc(Cl)cc2Cl)cc1 (stereo not given) [Econazole],114%,92.6%,84.2%,70.1%,43.1%,97.4%,89.8%,93.1%,69%,38.1%,103%,83.4%,89.3%,57.4%,25.2%,102%,92.1%,86.7%,78.4%,58.8%
Sc1ncnc2nc[nH]c12 [6-mercaptopurine],103%,93.8%,86.8%,38.8%,12.3%,110%,88.9%,102%,39.9%,8.69%,87%,85.5%,80.1%,27.3%,24.7%,97.2%,97.7%,85.9%,53.7%,15.5%
CCOC(=O)[C@H]1O[C@@H]1C(=O)N[C@@H](CC(C)C)C(=O)NCCC(C)C [Aloxistatin],96.7%,118%,105%,96.7%,91.5%,90.9%,112%,85.4%,105%,99.1%,99.1%,104%,110%,97.8%,87.8%,97.3%,108%,104%,89%,81.7%
